Results: PubChem BioAssay AID1963845 (Molecular Pharmacology Branch, DTP, NCI, 2024)

Test system: 429239-143-T-J1-PDC complex spheroid viability
Assay: Anticancer human tumor 429239-143-T-J1-PDC patient-derived small cell lung carcinoma cell line growth inhibition [POLQ]
Details: for IC50: curve of first compound; for viability, T/C: stronger effect = lower value
How it was run: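 Three-cell-type spheroids modelling solid tumor plus stroma served as the readout system; POL inhibitors were tested individually and in combination, concentration ranges set by clinical Cmax where known.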

[1] = second compound 0.0316 µM, first compound 0.0316 µM
[2] = second compound 0.0316 µM, first compound 0.1 µM
[3] = second compound 0.0316 µM, first compound 0.316 µM
[4] = second compound 0.0316 µM, first compound 1 µM
[5] = second compound 0.0316 µM, first compound 3.16 µM
[6] = second compound 0.0316 µM, first compound 10 µM
[7] = second compound 0.1 µM, first compound 0.0316 µM
[8] = second compound 0.1 µM, first compound 0.1 µM
[9] = second compound 0.1 µM, first compound 0.316 µM
[10] = second compound 0.1 µM, first compound 1 µM
[11] = second compound 0.1 µM, first compound 3.16 µM
[12] = second compound 0.1 µM, first compound 10 µM
[13] = second compound 0.316 µM, first compound 0.0316 µM
[14] = second compound 0.316 µM, first compound 0.1 µM
[15] = second compound 0.316 µM, first compound 0.316 µM
[16] = second compound 0.316 µM, first compound 1 µM
[17] = second compound 0.316 µM, first compound 3.16 µM
[18] = second compound 0.316 µM, first compound 10 µM
[19] = second compound 1 µM, first compound 0.0316 µM
[20] = second compound 1 µM, first compound 0.1 µM
[21] = second compound 1 µM, first compound 0.316 µM
[22] = second compound 1 µM, first compound 1 µM
[23] = second compound 1 µM, first compound 3.16 µM
[24] = second compound 1 µM, first compound 10 µM
[25] = second compound 3.16 µM, first compound 0.0316 µM
[26] = second compound 3.16 µM, first compound 0.1 µM
[27] = second compound 3.16 µM, first compound 0.316 µM
[28] = second compound 3.16 µM, first compound 1 µM
[29] = second compound 3.16 µM, first compound 3.16 µM
[30] = second compound 3.16 µM, first compound 10 µM
[31] = second compound 10 µM, first compound 0.0316 µM
[32] = second compound 10 µM, first compound 0.1 µM
[33] = second compound 10 µM, first compound 0.316 µM
[34] = second compound 10 µM, first compound 1 µM
[35] = second compound 10 µM, first compound 3.16 µM
[36] = second compound 10 µM, first compound 10 µM
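Note: luminescence signal used as surrogate measure of viable cells; spheroids exposed to compounds for seven days before readout.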
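Throughout, for viability, T/C: 100% = DMSO vehicle control viability as luminescence relative to vehicle.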

SMILES: CC(C)n1c(=O)n(C)c2cnc3cc(F)c(-c4ccc(OCCCN5CCCCC5)nc4)cc3c21 + COC1C(OC(N)=O)C(O)C(Oc2ccc3c(O)c(NC(=O)c4ccc(O)c(CC=C(C)C)c4)c(=O)oc3c2C)OC1(C)C
- IC50 (second compound 0.0316 µM): > 10000 nM
- IC50 (second compound 0.1 µM): > 10000 nM
- IC50 (second compound 0.316 µM): > 10000 nM
- IC50 (second compound 1 µM): > 10000 nM
- IC50 (second compound 3.16 µM): > 10000 nM
- IC50 (second compound 10 µM): > 10000 nM
- viability, T/C [1]: 107%
- viability, T/C [2]: 86.6%
- viability, T/C [3]: 99%
- viability, T/C [4]: 109%
- viability, T/C [5]: 104%
- viability, T/C [6]: 85.4%
- viability, T/C [7]: 102%
- viability, T/C [8]: 93.7%
- viability, T/C [9]: 82.7%
- viability, T/C [10]: 96.8%
- viability, T/C [11]: 82.9%
- viability, T/C [12]: 84.7%
- viability, T/C [13]: 109%
- viability, T/C [14]: 91%
- viability, T/C [15]: 82.3%
- viability, T/C [16]: 103%
- viability, T/C [17]: 90.6%
- viability, T/C [18]: 72.5%
- viability, T/C [19]: 93.2%
- viability, T/C [20]: 104%
- viability, T/C [21]: 91.5%
- viability, T/C [22]: 96.9%
- viability, T/C [23]: 81.5%
- viability, T/C [24]: 70.2%
- viability, T/C [25]: 101%
- viability, T/C [26]: 84.8%
- viability, T/C [27]: 90.9%
- viability, T/C [28]: 100%
- viability, T/C [29]: 87.6%
- viability, T/C [30]: 83.6%
- viability, T/C [31]: 86.9%
- viability, T/C [32]: 85.8%
- viability, T/C [33]: 88.7%
- viability, T/C [34]: 102%
- viability, T/C [35]: 74%
- viability, T/C [36]: 88.4%

SMILES: CC1COCCN1c1cc(C2(S(C)(=N)=O)CC2)nc(-c2ccnc3[nH]ccc23)n1 (stereo not drawn) + COC1C(OC(N)=O)C(O)C(Oc2ccc3c(O)c(NC(=O)c4ccc(O)c(CC=C(C)C)c4)c(=O)oc3c2C)OC1(C)C
- IC50 (second compound 0.0316 µM): 2270 nM
- IC50 (second compound 0.1 µM): 2120 nM
- IC50 (second compound 0.316 µM): 1990 nM
- IC50 (second compound 1 µM): 2430 nM
- IC50 (second compound 3.16 µM): 1880 nM
- IC50 (second compound 10 µM): 2580 nM
- viability, T/C [1]: 116%
- viability, T/C [2]: 100%
- viability, T/C [3]: 89.4%
- viability, T/C [4]: 79.4%
- viability, T/C [5]: 35.6%
- viability, T/C [6]: 15.6%
- viability, T/C [7]: 107%
- viability, T/C [8]: 105%
- viability, T/C [9]: 96.2%
- viability, T/C [10]: 73.5%
- viability, T/C [11]: 37.6%
- viability, T/C [12]: 15.1%
- viability, T/C [13]: 103%
- viability, T/C [14]: 94.3%
- viability, T/C [15]: 100%
- viability, T/C [16]: 61.1%
- viability, T/C [17]: 42.4%
- viability, T/C [18]: 17.3%
- viability, T/C [19]: 120%
- viability, T/C [20]: 94.1%
- viability, T/C [21]: 95.3%
- viability, T/C [22]: 88.1%
- viability, T/C [23]: 38.1%
- viability, T/C [24]: 21.4%
- viability, T/C [25]: 90.6%
- viability, T/C [26]: 109%
- viability, T/C [27]: 100%
- viability, T/C [28]: 72.6%
- viability, T/C [29]: 31.7%
- viability, T/C [30]: 18.8%
- viability, T/C [31]: 89.8%
- viability, T/C [32]: 103%
- viability, T/C [33]: 106%
- viability, T/C [34]: 72.1%
- viability, T/C [35]: 47%
- viability, T/C [36]: 16.6%

SMILES: O=C(c1cc(Cc2n[nH]c(=O)c3ccccc23)ccc1F)N1CCN(C(=O)C2CC2)CC1 + COC1C(OC(N)=O)C(O)C(Oc2ccc3c(O)c(NC(=O)c4ccc(O)c(CC=C(C)C)c4)c(=O)oc3c2C)OC1(C)C
- IC50 (second compound 0.0316 µM): 1940 nM
- IC50 (second compound 0.1 µM): 1960 nM
- IC50 (second compound 0.316 µM): 1700 nM
- IC50 (second compound 1 µM): 1970 nM
- IC50 (second compound 3.16 µM): 1700 nM
- IC50 (second compound 10 µM): 1360 nM
- viability, T/C [1]: 97.2%
- viability, T/C [2]: 80.8%
- viability, T/C [3]: 79.1%
- viability, T/C [4]: 82.3%
- viability, T/C [5]: 26.2%
- viability, T/C [6]: 16.1%
- viability, T/C [7]: 82.7%
- viability, T/C [8]: 88.6%
- viability, T/C [9]: 77.8%
- viability, T/C [10]: 74.3%
- viability, T/C [11]: 32.9%
- viability, T/C [12]: 18.2%
- viability, T/C [13]: 103%
- viability, T/C [14]: 97.2%
- viability, T/C [15]: 86.8%
- viability, T/C [16]: 68.9%
- viability, T/C [17]: 28.9%
- viability, T/C [18]: 18.2%
- viability, T/C [19]: 104%
- viability, T/C [20]: 87.5%
- viability, T/C [21]: 81.2%
- viability, T/C [22]: 78.5%
- viability, T/C [23]: 30.4%
- viability, T/C [24]: 17.6%
- viability, T/C [25]: 97.3%
- viability, T/C [26]: 86.5%
- viability, T/C [27]: 73.8%
- viability, T/C [28]: 71.6%
- viability, T/C [29]: 29.2%
- viability, T/C [30]: 19%
- viability, T/C [31]: 106%
- viability, T/C [32]: 99.6%
- viability, T/C [33]: 86.9%
- viability, T/C [34]: 60.7%
- viability, T/C [35]: 24.8%
- viability, T/C [36]: 16.4%

SMILES: C#Cc1c(F)ccc2cc(O)cc(-c3ncc4c(N5CC6CCC(C5)N6)nc(OCC56CCCN5CC(F)C6)nc4c3F)c12 (stereo not drawn) + Nc1ccc(C#CCN(C(=O)Cc2ncc(C(F)(F)F)cc2C(F)(F)F)c2ccc(F)cc2)nn1
- IC50 (second compound 0.0316 µM): > 10000 nM
- IC50 (second compound 0.1 µM): > 10000 nM
- IC50 (second compound 0.316 µM): > 10000 nM
- IC50 (second compound 1 µM): > 10000 nM
- IC50 (second compound 3.16 µM): > 10000 nM
- IC50 (second compound 10 µM): > 10000 nM
- viability, T/C [1]: 98.6%
- viability, T/C [2]: 106%
- viability, T/C [3]: 103%
- viability, T/C [4]: 109%
- viability, T/C [5]: 102%
- viability, T/C [6]: 89.3%
- viability, T/C [7]: 103%
- viability, T/C [8]: 107%
- viability, T/C [9]: 102%
- viability, T/C [10]: 98.7%
- viability, T/C [11]: 101%
- viability, T/C [12]: 95%
- viability, T/C [13]: 106%
- viability, T/C [14]: 93%
- viability, T/C [15]: 102%
- viability, T/C [16]: 100%
- viability, T/C [17]: 99.9%
- viability, T/C [18]: 96.9%
- viability, T/C [19]: 102%
- viability, T/C [20]: 99.8%
- viability, T/C [21]: 105%
- viability, T/C [22]: 105%
- viability, T/C [23]: 99.7%
- viability, T/C [24]: 93.1%
- viability, T/C [25]: 99.4%
- viability, T/C [26]: 98%
- viability, T/C [27]: 106%
- viability, T/C [28]: 93.8%
- viability, T/C [29]: 103%
- viability, T/C [30]: 96.8%
- viability, T/C [31]: 93.9%
- viability, T/C [32]: 106%
- viability, T/C [33]: 97.4%
- viability, T/C [34]: 102%
- viability, T/C [35]: 101%
- viability, T/C [36]: 90.5%
